The values below come from publication PMC3958853, “Characterization and Antioxidant Properties of Six Algerian Propolis Extracts: Ethyl Acetate Extracts Inhibit Myeloperoxidase Activity” (International Journal of Molecular Sciences, 2014).

Several values for one entry are separate records, joined by “and”; a condition that tells them apart may be missing. Equal entries are not always repeated.

One test deals with T1, recombinant MPO (Homo sapiens, UniProt P05164).
T1 construct: made in house
T1 sequence (P05164 49-745): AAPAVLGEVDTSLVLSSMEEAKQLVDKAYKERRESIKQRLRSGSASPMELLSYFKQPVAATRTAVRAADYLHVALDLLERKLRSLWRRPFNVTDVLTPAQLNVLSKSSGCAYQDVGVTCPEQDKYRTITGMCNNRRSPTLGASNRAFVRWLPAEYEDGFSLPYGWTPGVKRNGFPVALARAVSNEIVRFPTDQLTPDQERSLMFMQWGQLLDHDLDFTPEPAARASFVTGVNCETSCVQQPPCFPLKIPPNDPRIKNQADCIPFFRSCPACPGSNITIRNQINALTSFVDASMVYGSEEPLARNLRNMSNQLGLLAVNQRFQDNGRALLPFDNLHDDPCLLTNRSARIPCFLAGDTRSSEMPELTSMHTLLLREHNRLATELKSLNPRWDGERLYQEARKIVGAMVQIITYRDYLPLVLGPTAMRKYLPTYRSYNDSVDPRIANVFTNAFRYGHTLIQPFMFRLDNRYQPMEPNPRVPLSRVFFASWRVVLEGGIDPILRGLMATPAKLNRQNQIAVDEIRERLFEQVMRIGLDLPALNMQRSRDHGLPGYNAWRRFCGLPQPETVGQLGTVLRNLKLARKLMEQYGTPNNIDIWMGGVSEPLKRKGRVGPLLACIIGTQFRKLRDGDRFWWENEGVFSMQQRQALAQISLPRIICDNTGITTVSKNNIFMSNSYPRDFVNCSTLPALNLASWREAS
The experiment in a line: Myeloperoxidase inhibition assay (taurine chloramine). It is filed as biochemical. Conditions: pure compounds, read-out: IC50 (μM) ± SD for MPO. The procedure: The recombinant MPO was produced as previously described Moguilevsky et al. and each batch solution was characterized by its protein concentration (mg/mL), its activity (U/mL), and its specific activity (U/mg). The chlorination activity was determined according to Hewson and Hager, (1979). Human plasma served for the isolation of LDL by ultracentrifugation according to Havel et al. (1955). Before oxidation, the LDL fraction (1.019 < d < 1.067 g/mL) was desalted by two consecutive passages through PD10 gel-filtration columns (Amersham Biosciences, Hoevelaken, The Netherlands) using PBS buffer. The different steps were carried out in the dark, and the protein concentration was measured by the Lowry assay for both MPO and LDL [57].
The assay was based on the production of taurine chloramine by the MPO/H2O2/Cl^− system which can be determined by means of 5-thio-2-nitrobenzoic acid (TNB) in the presence of a selected inhibitor at defined concentration. The reaction mixture contained the following reagents in a final volume of 200 μL:pH 7.4 phosphate buffer (10 mM PO4^3−/300 mM NaCl), taurine (15 mM), extraction solutions of propolis, and the fixed amount of the recombinant MPO (6 μL of MPO batch solution diluted 2.5 times, 40 nM). When necessary, the volume was adjusted with water. This mixture was incubated at 37 °C and the reaction initiated with 10.0 μL of H2O2 (100 μM). After 5 min, the reaction was stopped by the addition of 10 μL of catalase (8 U/μL). To determine the amount of taurine chloramines produced, 50 μL of 1.35 mM solution of TNB were added and the volume adjusted to 300 μL with water. Then, the absorbance of the solutions was measured at 412 nm with a microplate reader and the curve of the absorbance as a function of the inhibitor concentration was plotted. To remove the influence of HOCl scavenging carried out by the extracts, the same procedure of MPO inhibition assay was done but with addition of 6 μL of HOCl (60 μM) instead of the solution of MPO and H2O2.
What is called IC50 is the concentration that inhibits the measured activity by half. `COc1ccc(-c2cc(=O)c3c(O)cc(O)cc3o2)cc1` [Acacetin]: the IC50 turned out to be 9 ± 2 µM.

Regarding `O=C(O)/C=C/c1ccc(O)c(O)c1` [Caffeic acid], the IC50 is greater than 10 µM. As to `O=c1cc(-c2ccccc2)oc2cc(O)cc(O)c12` [Chrysin], the IC50 is 8 ± 2 µM. With `O=C(O)/C=C/c1ccccc1` [Cinnamic acid], the IC50 came to 9 ± 4 µM. On the same count and under the same terms, in the case of `COc1cc(/C=C/C(=O)O)ccc1O` [Ferulic acid] it was 6 ± 3 µM.

Take `O=c1c(O)c(-c2ccccc2)oc2cc(O)cc(O)c12` [Galangin]: the IC50 was greater than 10 µM. On the same count and under the same terms, in the case of `O=c1c(-c2ccc(O)cc2)coc2cc(O)cc(O)c12` [Genistein] it was greater than 10 µM; in that of `O=c1c(O)c(-c2ccc(O)cc2)oc2cc(O)cc(O)c12` [Kaempferol], 4.1 µM and 4 µM. With `CC(C)c1c(O)ccc2c1CC[C@H]1C(C)(C)CCC[C@]21C` [Totarol], the IC50 is greater than 10 µM.

The next test concerns the target T1, recombinant MPO.
Experiment: not given
Conditions: stated among literature reports, no reference given; cited from earlier work.
`O=c1c(O)c(-c2ccc(O)c(O)c2)oc2cc(O)cc(O)c12` [Quercetin]: the IC50 is roughly 5 µM.
